The source of these data is patent publication US9265253B2, “Use of macrocyclic picolinamides as fungicides” (DOW AGROSCIENCES LLC, priority 2013, dated 2016).

Each structure is given as a SMILES string. Where two headings read alike, the source gives them in different places.

Assay [1] concerns Mycosphaerella graminicola; Anamorph: Septoria tritici. Put plainly: Leaf Blotch of Wheat (SEPTTR) disease control. It counts as in vivo. The settings on record: Zymoseptoria tritici. In short, it runs like this: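 Wheat seedlings (Yuma, first leaf emerged) were sprayed to run-off with compound in acetone/water (1:9, 110 ppm Triton X-100) and inoculated with Septoria tritici spores before or after treatment. Disease severity (0–100%) was scored once untreated first leaves were fully symptomatic; control was calculated relative to untreated plants.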

Assay [2] deals with Puccinia triticina; Synonym: Puccinia recondite f. Sp. Tritici. Put plainly: Wheat Brown Rust (PUCCRT) disease control. As to conditions: Puccinia triticina, topical. The assay is classed as in vivo. In short, it runs like this:
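Brown rust on first-leaf Yuma wheat: spore inoculation before or after spray application (acetone/Triton X-100 solution, or EC with Trycol in track spray), overnight 100% RH at 22 °C, disease developed at 24 °C. Severity scored 0–100% and converted to percent control against untreated.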

Setting [3] is: 24 h, 1 Day Protectant, rate 100 ppm, read-out: SEPTTR 1 DP disease control.
[4] abbreviates: 72 h, 3 Day Curative, rate 100 ppm, read-out: SEPTTR 3 DC disease control.
[5] abbreviates: 24 h, 1 Day Protectant, rate 100 ppm, read-out: PUCCRT 1 DP disease control.
Setting [6] is: 72 h, 3 Day Curative, rate 100 ppm, read-out: PUCCRT 3 DC disease control.
Setting [7] is: 24 h, 1 Day Protectant, rate 121.5 g/H, read-out: SEPTTR 1 DP disease control.
Where [8] appears, read: 72 h, 3 Day Curative, rate 121.5 g/H, read-out: SEPTTR 3 DC disease control.
Where [9] appears, read: 24 h, 1 Day Protectant, rate 121.5 g/H, read-out: PUCCRT 1 DP disease control.
The mark [10] stands for this setting: 72 h, 3 Day Curative, rate 121.5 g/H, read-out: PUCCRT 3 DC disease control.

In the case of `COc1ccnc(C(=O)N[C@H]2CCC[C@H](CCC(C)C)[C@@H](Oc3ccccc3)[C@H](C)OC2=O)c1O` [Compound F1], the pest or weed control at 100 ppm is 80 to 100% in assay [1] (setting [3]), 80 to 100% in assay [1] (setting [4]), 80 to 100% in assay [2] (setting [5]) and 0 to 80% in assay [2] (setting [6]).

Consider `COc1ccnc(C(=O)N[C@H]2CCC[C@H](Cc3ccc(F)cc3)[C@@H](OC(=O)C3CCCC3)[C@H](C)OC2=O)c1O` [Compound F16], for which the pest or weed control at 100 ppm lay within 80 to 100% in assay [1] (setting [3]), 0 to 80% in assay [1] (setting [4]), 80 to 100% in assay [2] (setting [5]) and 0 to 80% in assay [2] (setting [6]).

On to `CCCO[C@@H]1[C@@H](CC2CCCC2)CCC[C@H](NC(=O)c2nccc(OC)c2O)C(=O)O[C@H]1C` [Compound F36], for which the pest or weed control at 100 ppm in assay [1] (setting [3]) and in assay [2] (setting [5]) was 80 to 100% throughout.

With `CCOCC(=O)OCOc1c(OC)ccnc1C(=O)N[C@H]1CCC[C@H](Cc2ccc(F)cc2)[C@@H](Oc2ccccc2)[C@H](C)OC1=O` [Compound F165], the pest or weed control at 100 ppm in assay [1] (setting [3]), in assay [1] (setting [4]), in assay [2] (setting [5]) and in assay [2] (setting [6]) was 80 to 100% in each case. The pest or weed control at 121.5 g/ha in assay [1] (setting [7]) was in the range of 80 to 100%; in assay [1] (setting [8]), 80 to 100%; in assay [2] (setting [9]), 80 to 100%; in assay [2] (setting [10]) it was 0 to 80%.

`COc1ccnc(C(=O)N[C@H]2CCC[C@H](CCC(C)C)[C@@H](Oc3ccccc3)[C@H](C)OC2=O)c1OCOC(C)=O` [Compound F89]: the pest or weed control at 100 ppm in assay [1] (setting [3]), in assay [1] (setting [4]), in assay [2] (setting [5]) and in assay [2] (setting [6]) was 80 to 100% in each case. Besides, the pest or weed control at 121.5 g/ha in assay [1] (setting [7]) fell in the range of 80 to 100%; in assay [1] (setting [8]), 80 to 100%; in assay [2] (setting [9]) it was 80 to 100%; in assay [2] (setting [10]), 0 to 80%.

In the case of `COc1ccnc(C(=O)N[C@H]2CCC[C@H](C)[C@@H](Oc3ccccc3)[C@H](C)OC2=O)c1O` [Compound F38], the pest or weed control at 100 ppm in assay [1] (setting [3]), in assay [2] (setting [5]) and in assay [2] (setting [6]) was 80 to 100% throughout.

Turning to `COc1ccnc(C(=O)N[C@H]2CCC[C@H](CCC(C)C)[C@@H](OCC(C)C)[C@H](C)OC2=O)c1O` [Compound F2], the pest or weed control at 100 ppm in assay [1] (setting [3]) is 80 to 100%; in assay [1] (setting [4]) it was 80 to 100%; in assay [2] (setting [5]), 80 to 100%; in assay [2] (setting [6]), 0 to 80%.

For `COc1ccnc(C(=O)N[C@H]2CCC[C@H](Cc3ccc(F)cc3)[C@@H](OC(=O)C3CCCC3)[C@H](C)OC2=O)c1OCOC(C)=O` [Compound F104], the pest or weed control at 100 ppm in assay [1] (setting [3]), in assay [1] (setting [4]), in assay [2] (setting [5]) and in assay [2] (setting [6]) was 80 to 100% throughout. Besides, the pest or weed control at 121.5 g/ha fell in the range of 80 to 100% in assay [1] (setting [7]), 80 to 100% in assay [1] (setting [8]), 80 to 100% in assay [2] (setting [9]) and 0 to 80% in assay [2] (setting [10]).

As for `COc1ccnc(C(=O)N[C@H]2CCC[C@H](CCOc3ccccc3)[C@@H](Oc3ccccc3)[C@H](C)OC2=O)c1OCOC(C)=O` [Compound F129], the pest or weed control at 100 ppm in assay [1] (setting [3]), in assay [1] (setting [4]), in assay [2] (setting [5]) and in assay [2] (setting [6]) was 80 to 100% each time. In addition, the pest or weed control at 121.5 g/ha in assay [1] (setting [7]) was in the range of 80 to 100%; in assay [1] (setting [8]) it was 80 to 100%; in assay [2] (setting [9]) it was 80 to 100%; in assay [2] (setting [10]) it was 0 to 80%.

With `COc1ccnc(C(=O)N[C@H]2CCC[C@H](Cc3ccc(C)cc3)[C@@H](OCCCC(F)(F)F)[C@H](C)OC2=O)c1OCOC(C)=O` [Compound F139], the pest or weed control at 100 ppm in assay [1] (setting [3]), in assay [1] (setting [4]), in assay [2] (setting [5]) and in assay [2] (setting [6]) was 80 to 100% in each case. Further, the pest or weed control at 121.5 g/ha in assay [1] (setting [7]) lay within 80 to 100%; in assay [1] (setting [8]) it was 80 to 100%; in assay [2] (setting [9]), 80 to 100%; in assay [2] (setting [10]) it was 0 to 80%.

Consider `COc1ccnc(C(=O)N[C@H]2CCC[C@H](CCF)[C@@H](OCC(C)C)[C@H](C)OC2=O)c1O` [Compound F43], for which the pest or weed control at 100 ppm in assay [1] (setting [3]), in assay [1] (setting [4]), in assay [2] (setting [5]) and in assay [2] (setting [6]) was 80 to 100% throughout.

As for `COc1ccnc(C(=O)N[C@H]2CCC[C@H](CCC(C)C)[C@@H](OC)[C@H](C)OC2=O)c1OC(C)=O` [Compound F66], the pest or weed control at 100 ppm in assay [1] (setting [3]), in assay [1] (setting [4]), in assay [2] (setting [5]) and in assay [2] (setting [6]) was 80 to 100% each time. The pest or weed control at 121.5 g/ha was 80 to 100% in assay [1] (setting [7]), 0 to 80% in assay [1] (setting [8]), 0 to 80% in assay [2] (setting [9]) and 0 to 80% in assay [2] (setting [10]).

On to `COc1ccnc(C(=O)N[C@H]2CCC[C@H](CCSC)[C@@H](OCC(C)C)[C@H](C)OC2=O)c1O` [Compound F46], for which the pest or weed control at 100 ppm is 0 to 80% in assay [1] (setting [3]), 80 to 100% in assay [1] (setting [4]), 80 to 100% in assay [2] (setting [5]) and 80 to 100% in assay [2] (setting [6]).

Consider `COc1ccnc(C(=O)N[C@H]2CCC[C@H](CCOc3ccccc3)[C@@H](Oc3ccccc3)[C@H](C)OC2=O)c1O` [Compound F44], for which the pest or weed control at 100 ppm in assay [1] (setting [3]), in assay [1] (setting [4]), in assay [2] (setting [5]) and in assay [2] (setting [6]) was 80 to 100% each time.

On to `CCOCC(=O)OCOc1c(OC)ccnc1C(=O)N[C@H]1CCC[C@H](CCC(C)C)[C@@H](OC)[C@H](C)OC1=O` [Compound F163], for which the pest or weed control at 100 ppm in assay [1] (setting [3]) was in the range of 80 to 100%; in assay [1] (setting [4]), 80 to 100%; in assay [2] (setting [5]) it was 80 to 100%; in assay [2] (setting [6]), 0 to 80%. The pest or weed control at 121.5 g/ha in assay [1] (setting [7]) is 80 to 100%; in assay [1] (setting [8]), 0 to 80%; in assay [2] (setting [9]), 0 to 80%; in assay [2] (setting [10]), 0 to 80%.

For the compound `COc1ccnc(C(=O)N[C@H]2CCC[C@H](CCC(C)C)[C@@H](Oc3ccccc3)[C@H](C)OC2=O)c1OCOC(=O)C(C)C` [Compound F147], the pest or weed control at 100 ppm in assay [1] (setting [3]), in assay [1] (setting [4]), in assay [2] (setting [5]) and in assay [2] (setting [6]) was 80 to 100% throughout. In addition, the pest or weed control at 121.5 g/ha in assay [1] (setting [7]) lay in the range of 80 to 100%; in assay [1] (setting [8]), 80 to 100%; in assay [2] (setting [9]), 80 to 100%; in assay [2] (setting [10]), 0 to 80%.

As for `COc1ccnc(C(=O)N[C@H]2CCC[C@H](CCOCC3CC3)[C@@H](OCC3CC3)[C@H](C)OC2=O)c1OC(=O)C1CC1` [Compound F196], the pest or weed control at 100 ppm in assay [1] (24 h, Wheat Leaf Blotch, 1 Day Protectant, rate 100 ppm (high volume application), read-out: Disease control SEPTTR 1 DP) lay in the range of 80 to 100%; in assay [1] (72 h, Wheat Leaf Blotch, 3 Day Curative, rate 100 ppm (high volume application), read-out: Disease control SEPTTR 3 DC) it was 0 to 80%; in assay [2] (24 h, Wheat Brown Rust, 1 Day Protectant, rate 100 ppm (high volume application), read-out: Disease control PUCCRT 1 DP), 80 to 100%; in assay [2] (72 h, Wheat Brown Rust, 3 Day Curative, rate 100 ppm (high volume application), read-out: Disease control PUCCRT 3 DC), 80 to 100%. The pest or weed control at 121.5 g/ha in assay [1] (24 h, Wheat Leaf Blotch, 1 Day Protectant, rate 121.5 g/H (low volume application), read-out: Disease control SEPTTR 1 DP) fell in the range of 0 to 80%; in assay [1] (72 h, Wheat Leaf Blotch, 3 Day Curative, rate 121.5 g/H (low volume application), read-out: Disease control SEPTTR 3 DC) it was 0 to 80%; in assay [2] (24 h, Wheat Brown Rust, 1 Day Protectant, rate 121.5 g/H (low volume application), read-out: Disease control PUCCRT 1 DP), 80 to 100%; in assay [2] (72 h, Wheat Brown Rust, 3 Day Curative, rate 121.5 g/H (low volume application), read-out: Disease control PUCCRT 3 DC), 80 to 100%.

On to `CCOCC(=O)OCOc1c(OC)ccnc1C(=O)N[C@H]1CCC[C@H](Cc2ccc(F)cc2)[C@@H](OC(=O)C2CCCC2)[C@H](C)OC1=O` [Compound F170], for which the pest or weed control at 100 ppm in assay [1] (setting [3]), in assay [1] (setting [4]), in assay [2] (setting [5]) and in assay [2] (setting [6]) was 80 to 100% each time. The pest or weed control at 121.5 g/ha fell in the range of 80 to 100% in assay [1] (setting [7]), 80 to 100% in assay [1] (setting [8]), 80 to 100% in assay [2] (setting [9]) and 0 to 80% in assay [2] (setting [10]).

As to `CCO[C@@H]1[C@@H](Cc2ccccc2)CCC[C@H](NC(=O)c2nccc(OC)c2OCOC(C)=O)C(=O)O[C@H]1C` [Compound F111], the pest or weed control at 121.5 g/ha in assay [1] (setting [7]), in assay [1] (setting [8]), in assay [2] (setting [9]) and in assay [2] (setting [10]) was 80 to 100% in each case.
